Data on nine compounds can be found in patent US12509462B2, “3-(phenylsulfonyl)-[1,2,3]triazolo[1,5A]quinazolin-5(4H)-one derivatives” (BIOVERSYS AG, priority 2018, dated 2025).

In brackets after ≈: the same amount, converted by molar mass.

One series deals with MRSA. Put plainly: MIC by broth microdilution in CA-MHB (CLSI). Particulars: Staphylococcus aureus, 18 h, read-out: MIC on MRSA. For orientation: In broth dilution the organism is exposed to a series of concentrations in liquid medium.
Series [1] deals with Staphylococcus aureus MRSA strain (USA300 isolate). Kind of series: Hemolysis Assay II (exotoxin-mediated lysis of rabbit red blood cells by culture filtrate). Particulars: Erythrocyte; for minimal effective concentration / IC95: 18 h; for minimal effective concentration: absorbance <2× the average of the complete inhibition control, read-out: Hemolysis assay II MEC (minimal effective concentration); for IC95: read-out: Hemolysis assay II IC95; for IC50: 18 h culture in CA-MHB, rabbit red blood cells. The class given is cell-based.

The subject of another series is HepG2. As to conditions: human, 48 h.

As to `COc1ccc2c(=O)[nH]c3c(S(=O)(=O)c4ccc(C5CC5)cc4)nnn3c2c1` [Compound 21, 3-(4-cyclopropylphenyl)sulfonyl-8-methoxy-4H-triazolo[1,5-a]quinazolin-5-one], the MIC with MRSA was ≥ 100 µM. Also, in series [1], the minimal effective concentration was 4 µg/mL, the IC95 amounted to 3.4 µg/mL (≈ 8.58 µM) and half-maximal inhibition (IC50) required 1.5 µg/mL (≈ 3.78 µM). The “LD50 HepG2” value in the series on HepG2 is given as “>=100 μM”.

As for `COc1ccc2c(=O)[nH]c3c(S(=O)(=O)c4ccc(C5CC5)cc4C)nnn3c2c1` [Compound 27, 3-(4-cyclopropyl-2-methyl-phenyl)sulfonyl-8-methoxy-4H-triazolo[1,5-a]quinazolin-5-one], the MIC in the series on MRSA was ≥ 100 µM. For the same compound, in series [1], the minimal effective concentration was 2 µg/mL, the IC95 worked out at 1.9 µg/mL (≈ 4.63 µM) and the IC50 was 0.15 µg/mL (≈ 0.365 µM). Further, in the series on HepG2, the “LD50 HepG2” value was “>=100 μM”.

For `CCc1ccc(S(=O)(=O)c2nnn3c2[nH]c(=O)c2ccc(OC)cc23)c(C)c1` [Compound 28, 3-(4-ethyl-2-methyl-phenyl)sulfonyl-8-methoxy-4H-triazolo[1,5-a]quinazolin-5-one], the MIC with MRSA was ≥ 100 µM. Also, in series [1], the minimal effective concentration was found to be 8 µg/mL, the concentration for an effect of 95% (IC95) worked out at 4.5 µg/mL (≈ 11.3 µM) and the IC50 is 2 µg/mL (≈ 5.02 µM). In addition, the “LD50 HepG2” value in the series on HepG2 is “>=100 μM”.

For the compound `Cc1ccc(S(=O)(=O)c2nnn3c2[nH]c(=O)c2ccc(Br)cc23)c(C)c1` [Compound 38, 8-bromo-3-(2,4-dimethylphenyl)sulfonyl-4H-triazolo[1,5-a]quinazolin-5-one], the MIC in the series on MRSA worked out at 50 µM (≈ 21.7 µg/mL). Further, in series [1], the minimal effective concentration is 4 µg/mL, the IC95 is 4.6 µg/mL (≈ 10.6 µM) and 1.4 µg/mL (≈ 3.23 µM) corresponded to half-maximal inhibition (IC50). Moreover, the “LD50 HepG2” value with HepG2 was “>=100 μM”.

As to `COCCCOc1ccc2c(=O)[nH]c3c(S(=O)(=O)c4ccc(C)cc4C)nnn3c2c1` [Compound 40, 3-(2,4-dimethylphenyl)sulfonyl-8-(3-methoxypropoxy)-4H-triazolo[1,5-a]quinazolin-5-one], the MIC with MRSA is ≥ 100 µM. In addition, in series [1], the minimal effective concentration stood at 3 µg/mL, the IC95 came out at 4.4 µg/mL (≈ 9.94 µM) and half-maximal inhibition (IC50) was put at 1.05 µg/mL (≈ 2.37 µM). For the same compound, the “LD50 HepG2” value in the series on HepG2 is reported as “>=100 μM”.

With `Cc1ccc(S(=O)(=O)c2nnn3c2[nH]c(=O)c2ccc(OCCCC#N)cc23)c(C)c1` [Compound 41, 4-[[3-(2,4-dimethylphenyl)sulfonyl-5-oxo-4H-triazolo[1,5-a]quinazolin-8-yl]oxy]butanenitrile], the MIC in the series with MRSA is ≥ 100 µM. Moreover, in series [1], the minimal effective concentration turned out to be 2 µg/mL, the IC95 worked out at 2.5 µg/mL (≈ 5.71 µM) and half-maximal inhibition (IC50) was put at 0.65 µg/mL (≈ 1.49 µM). Besides, the “LD50 HepG2” value in the series on HepG2 is reported as “>=100 μM”.

For the compound `Cc1ccc(S(=O)(=O)c2nnn3c2[nH]c(=O)c2ccc(I)cc23)c(C)c1` [Compound 42, 3-(2,4-dimethylphenyl)sulfonyl-8-iodo-4H-triazolo[1,5-a]quinazolin-5-one], in the series on MRSA, the MIC was ≥ 100 µM. Further, in series [1], the minimal effective concentration stood at 6 µg/mL, the IC95 turned out to be 10.1 µg/mL (≈ 20.9 µM) and the IC50 was determined as 2.05 µg/mL (≈ 4.27 µM). Further, the “LD50 HepG2” value with HepG2 is on record as “>=100 μM”.

As for `COCCOc1ccc2c(=O)[nH]c3c(S(=O)(=O)c4ccc(C)cc4C)nnn3c2c1` [Compound 43, 3-(2,4-dimethylphenyl)sulfonyl-8-(2-methoxyethoxy)-4H-triazolo[1,5-a]quinazolin-5-one], in the series on MRSA, the MIC was ≥ 100 µM. In addition, in series [1], the minimal effective concentration is 2 µg/mL, the IC95 worked out at 3.5 µg/mL (≈ 8.17 µM) and the IC50 came to 0.8 µg/mL (≈ 1.87 µM). Besides, in the series on HepG2, the “LD50 HepG2” value was “>=100 μM”.

For the compound `Cc1cc(Br)c(S(=O)(=O)c2nnn3c2[nH]c(=O)c2ccccc23)cc1C` [Compound 44, 3-(2-bromo-4,5-dimethyl-phenyl)sulfonyl-4H-triazolo[1,5-a]quinazolin-5-one], the MIC in the series with MRSA was ≥ 100 µM. Further, in series [1], the minimal effective concentration was found to be 6 µg/mL, the IC95 is 7.2 µg/mL (≈ 16.6 µM) and the IC50 is 1.85 µg/mL (≈ 4.27 µM). Further, the “LD50 HepG2” value in the series on HepG2 is on record as “>=100 μM”.

The term MIC denotes the least concentration at which growth counts as inhibited. In general, IC95 refers to the point of the concentration-response curve where the effect stands at 95%. The IC50 is the midpoint of a concentration-inhibition curve. Read a high IC50 as lower potency.
